In ChEMBL document CHEMBL4321850, “Targeting Aryl hydrocarbon receptor for next-generation immunotherapies: Selective modulators (SAhRMs) versus rapidly metabolized ligands (RMAhRLs)” (Eur J Med Chem, 2020):

How the values were obtained:
[1] = molecular target: T1, Aryl hydrocarbon receptor (Mus musculus, UniProt P30561); assay: Displacement of 2-azido-3-[125I]7,8-dibromodibenzo-pdioxin from C57BL/6J mouse liver AhR incubated for 20 mins by gamma counting based autoradiography
T1 sequence (P30561 whole entry): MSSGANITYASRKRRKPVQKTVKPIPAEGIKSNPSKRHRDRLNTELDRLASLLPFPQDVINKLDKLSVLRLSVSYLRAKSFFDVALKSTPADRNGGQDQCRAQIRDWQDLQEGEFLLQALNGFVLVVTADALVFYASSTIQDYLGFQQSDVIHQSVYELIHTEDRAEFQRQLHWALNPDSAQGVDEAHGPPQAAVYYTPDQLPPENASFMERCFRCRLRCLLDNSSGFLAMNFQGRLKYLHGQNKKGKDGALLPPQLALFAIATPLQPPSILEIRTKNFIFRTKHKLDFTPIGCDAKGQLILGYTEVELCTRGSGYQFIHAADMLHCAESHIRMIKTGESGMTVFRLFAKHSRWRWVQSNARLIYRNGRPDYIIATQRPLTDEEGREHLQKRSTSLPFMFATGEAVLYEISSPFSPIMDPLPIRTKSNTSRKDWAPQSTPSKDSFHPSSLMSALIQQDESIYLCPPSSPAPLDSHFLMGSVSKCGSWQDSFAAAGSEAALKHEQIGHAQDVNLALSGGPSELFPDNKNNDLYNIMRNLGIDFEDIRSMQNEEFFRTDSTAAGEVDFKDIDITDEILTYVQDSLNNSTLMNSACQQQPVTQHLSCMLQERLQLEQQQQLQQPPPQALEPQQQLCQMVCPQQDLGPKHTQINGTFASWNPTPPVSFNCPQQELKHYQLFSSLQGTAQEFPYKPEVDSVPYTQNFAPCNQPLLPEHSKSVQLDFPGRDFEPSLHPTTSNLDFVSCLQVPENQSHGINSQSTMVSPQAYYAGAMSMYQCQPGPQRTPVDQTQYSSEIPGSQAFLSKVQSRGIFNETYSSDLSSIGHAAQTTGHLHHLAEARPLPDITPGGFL

[2] = molecular target: T2, Aryl hydrocarbon receptor (Homo sapiens, UniProt P35869); assay: Displacement of [3H] 3-MC from AhR (unknown origin)
T2 sequence (P35869 whole entry): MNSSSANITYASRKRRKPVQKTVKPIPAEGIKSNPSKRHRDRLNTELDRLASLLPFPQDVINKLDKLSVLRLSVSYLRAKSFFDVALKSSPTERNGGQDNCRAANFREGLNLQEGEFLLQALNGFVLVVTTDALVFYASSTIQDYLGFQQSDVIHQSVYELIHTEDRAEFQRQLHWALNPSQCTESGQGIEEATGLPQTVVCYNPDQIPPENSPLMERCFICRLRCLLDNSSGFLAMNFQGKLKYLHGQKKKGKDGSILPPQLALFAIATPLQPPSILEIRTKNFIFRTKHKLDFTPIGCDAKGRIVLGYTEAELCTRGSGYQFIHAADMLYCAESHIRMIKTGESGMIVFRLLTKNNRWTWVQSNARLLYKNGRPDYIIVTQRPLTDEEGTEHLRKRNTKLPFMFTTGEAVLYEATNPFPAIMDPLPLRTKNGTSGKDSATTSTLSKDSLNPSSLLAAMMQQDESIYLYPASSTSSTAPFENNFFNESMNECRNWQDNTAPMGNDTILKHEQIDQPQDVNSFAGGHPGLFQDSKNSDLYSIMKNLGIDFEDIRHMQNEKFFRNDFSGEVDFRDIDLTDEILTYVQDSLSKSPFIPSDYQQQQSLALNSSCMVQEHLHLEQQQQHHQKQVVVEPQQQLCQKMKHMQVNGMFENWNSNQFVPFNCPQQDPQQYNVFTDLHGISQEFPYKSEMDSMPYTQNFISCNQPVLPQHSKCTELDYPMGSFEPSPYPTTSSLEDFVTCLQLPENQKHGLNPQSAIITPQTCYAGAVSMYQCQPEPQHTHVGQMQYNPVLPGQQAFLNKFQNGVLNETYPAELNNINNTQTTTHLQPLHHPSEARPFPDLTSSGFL

[3] = molecular target: T1, Aryl hydrocarbon receptor; assay: Displacement of [3H]TCDD from mouse AhR
[4] = molecular target: T2, Aryl hydrocarbon receptor; assay: Inhibition of AhR (unknown origin)
[5] = molecular target: T2, Aryl hydrocarbon receptor; assay: Binding affinity to AhR (unknown origin)
[6] = molecular target: T2, Aryl hydrocarbon receptor; assay: Binding affinity to AhR (unknown origin) relative to TCDD
[7] = molecular target: T1, Aryl hydrocarbon receptor; assay: Displacement of 2-azido-3-[125I]7,8-dibromodibenzo-pdioxin from C57BL/6J mouse liver AhR
[8] = molecular target: T1, Aryl hydrocarbon receptor; assay: Displacement of 2-azido-3-[125I]7,8-dibromodibenzo-pdioxin from C57BL/6J mouse liver AhR relative to TCDD

Work on O=c1cc(-c2ccccc2)oc2c1ccc1ccccc12 [ALPHA-NAPHTHOFLAVONE] yielded an IC50 [1] of 25 nM.

In the case of O=c1c2cccc3cccc(c32)c2nc3ccc(Cl)cc3n12, the IC50 [2] is reported as 2.6 nM.

In the case of COc1ccc(-c2cc(=O)c3ccc4ccccc4c3o2)cc1OC, the IC50 [1] is reported as 21 nM.

Work on COC(=O)c1csc(C(=O)c2c[nH]c3ccccc23)n1 yielded a Kd [3] of 3 nM.

With Nc1ccccc1C(=O)C[C@H](N)C(=O)O [L-KYNURENINE] the Ki [4] was 21600 nM.

For Cc1cc(Cl)cc2c1oc1cc(Cl)cc(Cl)c12, the Kd [5] was 0.13 nM and the EC50 [6] was 49 nM.

c1ccc2c(Cc3c[nH]c4ccccc34)c[nH]c2c1 [ARUNDINE] gave a Kd [7] of 90 nM and an EC50 [8] of 78000 nM.
